Source: patent US12697343B2, “Intravenous istaroxime for the treatment of acute heart failure” (Seismic Pharmaceuticals Operations LLC, priority 2021, dated 2026)
Structures can show the parent of a compound that is named as a salt.

What was measured:
[1] = tested on: patients hospitalized for acute heart failure (AHF); experiment: Self-reported dyspnoea by visual analogue scale (VAS); assay type: in vivo, human
Experimental: (§1) The primary efficacy endpoint was the change from baseline to 24 h after the start of the infusion in the E/e ratio assessed by tissue Doppler echocardiography. Secondary endpoints included the change from baseline to 24 h of other echocardiography parameters: LVEF, left ventricular end-systolic and end-diastolic volumes, stroke volume index, E, A, E/A ratio, and S′: changes in dyspnoea by visual analogue scale (VAS) and in NT-proBNP from baseline to 24 h: proportion of patients with hospital readmissions or emergency visits for cardiovascular reasons by day 30; proportion of patients with episodes of in-hospital worsening heart failure to day 4, and length of stay. In-hospital worsening heart failure was defined by the need to increase the dose or reinitiate intravenous therapy with diuretics and/or other inotropic agents to day 4. Safety endpoints were assessed throughout the study and included: incidence of adverse events (AEs): change in vital signs and in 12-lead electrocardiographic (ECG) parameters: incidence of clinically or haemodynamically significant episodes of supraventricular or ventricular arrhythmias detected by continuous ECG monitoring: standard laboratory parameters: renal function: cardiac troponin T (cTnT): incidence of cTnT elevations, and mortality at day 30. Elevations in cTnT were considered significant if they were >50% or >20% from baseline values, for patients with cTnT below or above the 99% upper reference limit at baseline, respectively.
The study design included a 24 h screening period, a 24 h study drug infusion phase (day 1), a post-treatment phase (days 2-4), and a follow-up visit at day 30 (FIG. 5). Patients could be enrolled at any time after admission. The use of oral medications was permitted during the study with the exception of digoxin. Intravenous diuretics were permitted during the treatment period at stable doses, unless changes were required due to clinically relevant variations of the patient's condition. If treatment with an inotrope was clinically necessary during the infusion period, the investigational product was discontinued. Echocardiography was performed according to international standards at screening, baseline (just before starting study drug infusion), 6, 24 h (just before infusion end), and 48 h after infusion start. Echocardiographic measurements at baseline, 6, 24, and 48 h were evaluated in a blinded fashion by a CoreLab located at the University and Civil Hospital of Brescia, Italy. E/e′ ratio was calculated as the ratio between the peak early diastolic mitral flow velocity (E wave) and the mean of the annular lateral (e′ lateral) and septal (e′ septal) velocities, according to standard guidelines.^20 Intraobserver and interobserver variability in E/e′ measurement was tested on the 15% of the recordings and is shown in FIG. 6. Self-reported dyspnoea was assessed using a 100 mm VAS, with zero representing the worst level of dyspnoea and […] the best breathing condition. Twenty-four hour ECG monitoring was performed using a three-lead device (Mortara industries, Milwaukee, WI, USA) during the day of screening, the infusion period, and the day after (the latter was optional). Analysis was conducted by a blinded CoreLab (ICS Maugeri, Italy). Serial measurements of NT-proBNP throughout the study were analyzed by a central laboratory (Elecsys® proBNP II, Roche®, Basel, Switzerland). Samples for cTnT were taken at baseline, 3, 6, 12, 24, 48, and 72 h and on day 30, and were analyzed by a core laboratory (Elecsys® high-sensitivity assay, Roche®, Basel, Switzerland). AEs were monitored throughout the duration of the study.
The study was designed as a mechanistic and safety study to assess the effects of a 24 h istaroxime infusion in patients hospitalized for AHF. […]

[2] = tested on: patients hospitalized for acute heart failure (AHF); experiment: Clinical secondary endpoints: in-hospital worsening heart failure to day 4, readmissions/ED visits to day 30, length of stay; assay type: in vivo, human
Experimental: as §1
The study was designed as a mechanistic and safety study to assess the effects of a 24 h istaroxime infusion in patients hospitalized for AHF. Based on the changes observed in the HORIZON-HF trial, we assumed that a sample size of at least 20 patients in the placebo group in each cohort with 2:1 randomization to istaroxime would provide sufficient power to assess the effect of istaroxime on the main haemodynamic parameters. Analyses were conducted using a pre-specified modified intention-to-treat (mITT) protocol, including all randomized patients in whom study drug infusion had been initiated and with at least […] available evaluation of efficacy after the baseline. Biomarker and eGFR values were analyzed using medians and inner/outer quartiles, and active treatment was compared to placebo using the Wilcoxon rank-sum test. Dyspnoea scores by VAS were analyzed using mixed model regression with treatment, center, time point, gender, baseline cTnT, presence of atrial fibrillation, treatment by time point interaction, baseline value, and baseline value by time point interaction in the model. Echocardiographic parameters were compared between treatment groups using linear regression with treatment in the model. Categorical variables were summarized as frequency and percent and compared between treatment groups using the Cochran-Mantel-Haenszel test, controlling for study site. AEs were recorded for all enrolled patients and were summarized as AEs, serious AEs (SAEs), AEs leading to discontinuation, and SAEs leading to death. All analyses were conducted using the SAS® System for Windows™, versions 9.1.3 and 9.4.

[3] = tested on: AHF patients with systolic blood pressure (SBP) of 90-150 mmHg; settings: 0.5, 1.0, and 1.5 μg/kg/min for 6 h; cited from earlier work
[4] = intravenous infusion; cited from earlier work

With `C[C@]12CCC(=NOCCN)C[C@@H]1C(=O)C[C@@H]1[C@@H]2CC[C@]2(C)C(=O)CC[C@@H]12` [Istaroxime, (E,Z)-3-((2-aminoethoxy)imino)androstane-6,17-dione hydrochloride] the “Dyspnoea VAS score, mean change from baseline” value (shortened to “Dyspnoea VAS score, mean change”) ([1]; 0.5 μg/Kg/min, 3 hours) was 4.113, the “Dyspnoea VAS score, mean change” value ([1]; 0.5 μg/Kg/min, 6 hours) was 6.582 and the “Dyspnoea VAS score, mean change” value ([1]; 0.5 μg/Kg/min, 12 hours) was 6.772. For the same compound, the “Dyspnoea VAS score, mean change” value ([1]; 0.5 μg/Kg/min, 24 hours) was 9.276, the “Dyspnoea VAS score, mean change” value ([1]; 0.5 μg/Kg/min, 48 hours) was 10.948 and the “Dyspnoea VAS score, mean change” value ([1]; 1.0 μg/Kg/min, 3 hours) was 4.212. The “Dyspnoea VAS score, mean change” value ([1]; 1.0 μg/Kg/min, 6 hours) was 8.637, the “Dyspnoea VAS score, mean change” value ([1]; 1.0 μg/Kg/min, 12 hours) was 9.076 and the “Dyspnoea VAS score, mean change” value ([1]; 1.0 μg/Kg/min, 24 hours) was 13.332. The “Dyspnoea VAS score, mean change” value ([1]; 1.0 μg/Kg/min, 48 hours) was 10.075, the “Length of stay, median” value ([2]; 0.5 μg/Kg/min) was 7.0 days and the “Hospital readmission/ED visits to Day 30, count of patients” value ([2]; 0.5 μg/Kg/min (n = 41)) was 4. For the same compound, the “Hospital readmission/ED visits to Day 30, percent of patients” value ([2]; 0.5 μg/Kg/min (n = 41)) was “(9.8%)”, the “Worsening heart failure to day 4, count of patients” value ([2]; 0.5 μg/Kg/min (n = 41)) was 1 and the “Worsening heart failure to day 4, percent of patients” value ([2]; 0.5 μg/Kg/min (n = 41)) was “(2.4%)”. For the same compound, the “Length of stay, median” value ([2]; 1.0 μg/Kg/min) was 7.0 days, the “Hospital readmission/ED visits to Day 30, count of patients” value ([2]; 1.0 μg/Kg/min (n = 40)) was 4 and the “Hospital readmission/ED visits to Day 30, percent of patients” value ([2]; 1.0 μg/Kg/min (n = 40)) was “(10%)”. For the same compound, the “Worsening heart failure to day 4, count of patients” value ([2]; 1.0 μg/Kg/min (n = 40)) was 3, the “Worsening heart failure to day 4, percent of patients” value ([2]; 1.0 μg/Kg/min (n = 40)) was “(7.5%)” and the cardiac index [3] was “increased only at the highest dose”. The “lusitropic effect assessed by increased mitral deceleration time” value [3] was “occurred only at the highest dose” and the “half-time (washout after infusion termination)” value [4] was 60 min.
